Test [1] has as its target T1, porcine pancreatic carboxypeptidase B (Sus scrofa, UniProt P09955).
T1 construct: purchased Sigma C9584; host or cells: porcine pancreas
T1 sequence (P09955 111-416): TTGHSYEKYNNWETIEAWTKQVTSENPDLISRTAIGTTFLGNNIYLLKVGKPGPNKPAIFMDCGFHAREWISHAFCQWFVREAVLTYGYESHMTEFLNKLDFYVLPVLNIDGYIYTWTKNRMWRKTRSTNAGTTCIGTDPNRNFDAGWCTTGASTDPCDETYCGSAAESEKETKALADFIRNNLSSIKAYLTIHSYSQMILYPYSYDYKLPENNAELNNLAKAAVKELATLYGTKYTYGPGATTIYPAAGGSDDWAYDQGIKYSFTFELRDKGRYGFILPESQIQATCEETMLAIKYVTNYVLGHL
The test is described as follows: Decolorization of single amino acid substrate AAFR by porcine pancreatic carboxypeptidase B. In kind it is biochemical. The settings on record: porcine CPB 5.2 mol/l in Hepes buffer; 5 mM AAFR; at 382 nm. How it is done:
(§1) This substrate was constituted by a single amino acid carrying an anizylazoformyl chromophoric radical (CH3OC6H4—N═N—CO— portion). The amino acid selected was arginine, a basic amino acid normally hydrolyzed by carboxypeptidases B (1).
(§2) This substrate (0.25 mM) was brought into the presence of either a sample of plasma TAFI or a solution of porcine pancreatic carboxypeptidase B (Sigma, Reference: C9584), […].
(§3) The reduction in coloration of each of the two samples was followed using a spectrophotometer. Each sample was treated using the protocol below: • a) Starting sample: • plasma TAFI (present in a normal plasma pool—diluted to 1/20); or • porcine pancreatic carboxypeptidase B, […] (in Hepes buffer); • b) activation with thrombin-thrombomodulin-CaCl2 complex (see Example N^o 2) for the plasma TAFI sample; • c) addition of 5 mM AAFR; • d) read OD at 382 nm.

The target in a further test is T2, purified TAFI (TAFIa) (Homo sapiens, UniProt Q96IY4).
T2 sequence (Q96IY4 115-423): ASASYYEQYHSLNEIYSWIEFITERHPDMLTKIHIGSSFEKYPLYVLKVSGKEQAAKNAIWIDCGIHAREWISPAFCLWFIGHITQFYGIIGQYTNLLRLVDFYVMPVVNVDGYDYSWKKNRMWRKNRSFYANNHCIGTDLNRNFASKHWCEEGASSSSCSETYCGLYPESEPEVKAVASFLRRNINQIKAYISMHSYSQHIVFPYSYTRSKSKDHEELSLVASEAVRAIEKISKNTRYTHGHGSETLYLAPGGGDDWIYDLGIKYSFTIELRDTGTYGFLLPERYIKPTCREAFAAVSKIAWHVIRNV
The test is described as follows: Hydrolysis of MxAFR or MxPAFFK by activated purified TAFI solution. In kind it is biochemical. As to conditions: purified TAFI 18 μg/ml. How it is done:
2/ The method of the invention was then applied to a solution of purified TAFI either with a substrate with formula (I) (MxPAFFK) or with MxAFR to verify that TAFIa nevertheless hydrolyzes a compound with formula (I). Coagulation activation was triggered by the thrombin-thrombomodulin-CaCl2 complex (see protocol in Example N^o 2).
The reduction in coloration of each of the two samples was followed using a spectrophotometer. • a) Starting samples: purified TAFI solution, 18 μg/ml (diluted in Hepes buffer); • b) activating coagulation; • c) adding 27 mM MxAFR or MXPAFFK (control), concentration of MxAFFK; • d) adding CPA to the sample containing the MxPAFFK; • e) read OD at 382 nm.

In another test the target is T3, plasma TAFI (TAFIa) (Homo sapiens, UniProt Q96IY4).
T3 construct: from tissue; host or cells: normal plasma pool, diluted 1/20
T3 sequence (Q96IY4 115-423): T2 sequence (Q96IY4 115-423)
The test is described as follows: Decolorization of single amino acid substrate AAFR by activated plasma TAFI. The settings on record: compared with pancreatic CPB. In kind it is biochemical. How it is done: as §1, §2, §3

Another test concerns TAFI. The settings on record: per 1 mg of PCI; as indicated by the manufacturer (Calbiochem); cited from earlier work.

For the compound `COc1ccc(N=NC(=O)N[C@@H](CCCNC(=N)N)C(=O)O)cc1` [AAFR, 4-methoxyphenylazoformylarginine], in test [1], the “Final OD” value is 0.445 and the “Starting OD” value is 1.054. Moreover, the “Hydrolysis by activated TAFI (conclusion)” value (“Hydrolysis by activated TAFI” for short) at purified TAFI (TAFIa) is reported as “does not hydrolyze”. Besides, the “Hydrolysis by activated TAFI” value on plasma TAFI (TAFIa) was “does not hydrolyze”.

Regarding `COc1ccc(/N=N/C(=O)NC(Cc2ccccc2)C(=O)NC(CCCCN)C(=O)O)cc1` (stereo not drawn) [MxPAFFK, 4-metboxyphenylazoformylphenylalanyllysine], the “Hydrolysis by activated TAFI” value on purified TAFI (TAFIa) is reported as “active”.

On to “PCI: Carboxypeptidase Inhibitor from Potato Tubers, specific TAFI inhibitor (Calbiochem ref 217359) (QQHADPICNKPCKTHDDCSGAWFCQACWNSARTCGPYVG; UniProt P01075 1-39, looked up)”, for which the “Amount of TAFI (50 U/mg) inhibited at 50% by 1 mg of PCI” value in the test on TAFI is “about 8 mg”.

The values are drawn from patent US7405280B2, “Chromogenic substances and use thereof for the determination of carboxypeptidase activities” (Diagnostica Stago, priority 2001, dated 2008).
